Drawing on PubChem BioAssay (NCI), this text covers TGI and GI50 for 13 molecules.

Among the test systems are OVCAR-5 ovarian; CCRF-CEM leukemia; HOP-62 NSCLC; CAKI-1 renal; MALME-3M melanoma; SNB-75 CNS; HT29 colon; MCF7 breast; BT-549 breast; OVCAR-8 ovarian.
What all share (assay): NCI tumour cell line growth inhibition, 48 h

Where “and” joins values, the source holds several entries; their conditions need not be identical. Equal values may be shown once.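 Each compound was tested at five concentrations against cells in 96-well plates for 48 hours. GI50 is the concentration that inhibits growth by half. At the TGI there is no net growth.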

On to `COc1ccc(CNc2nc3cc(C(F)(F)F)ccc3nc2-c2ccccc2)cc1OC`, for which the TGI was over 100 µM in the test on OVCAR-5 ovarian; over 100 µM in the test on CCRF-CEM leukemia; over 100 µM in the test with HOP-62 NSCLC; 75.4 µM with CAKI-1 renal; over 100 µM in the test on MALME-3M melanoma; over 100 µM in the test with SNB-75 CNS. Also, the TGI was 61.1 µM with HT29 colon, 42.5 µM in the test on MCF7 breast, over 100 µM with BT-549 breast and over 100 µM in the test with OVCAR-8 ovarian.
With `COC(=O)C1=CON2C3CC4CC(C3)CC(C4)C12C` (stereo not given), the TGI in the test with OVCAR-5 ovarian, with CCRF-CEM leukemia, in the test with HOP-62 NSCLC, with CAKI-1 renal, in the test on MALME-3M melanoma and in the test with SNB-75 CNS was over 100 µM in each case. In addition, the TGI in the test with HT29 colon, with MCF7 breast, with BT-549 breast and in the test with OVCAR-8 ovarian was over 100 µM each time.
In the case of `COc1cc(OC2OC(COC(=O)c3cc(O)c(O)c(O)c3)C(O)C(O)C2O)ccc1O` (stereo not given), the TGI with OVCAR-5 ovarian, with CCRF-CEM leukemia, in the test on HOP-62 NSCLC, in the test with CAKI-1 renal, with MALME-3M melanoma and in the test with SNB-75 CNS was over 100 µM throughout. The TGI in the test with HT29 colon, with MCF7 breast, in the test on BT-549 breast and in the test on OVCAR-8 ovarian was over 100 µM in each case.
`COc1ccc([C@]23CCN4COC[C@@H]([C@H]42)C2(CC3)OCC(C)(C)CO2)cc1OC`: the TGI in the test on OVCAR-5 ovarian, in the test on CCRF-CEM leukemia, with HOP-62 NSCLC, in the test with CAKI-1 renal, in the test on MALME-3M melanoma and in the test on SNB-75 CNS was over 100 µM throughout. The TGI in the test on HT29 colon, in the test on MCF7 breast, in the test on BT-549 breast and in the test with OVCAR-8 ovarian was over 100 µM each time.
`CC(=O)NC1(C(=O)N[C@@H](Cc2ccccc2)C(=O)NC2CCCCC2)Cc2ccc3ccccc3c2-c2c(ccc3ccccc23)C1`: the GI50 in the test with OVCAR-5 ovarian is 26.5 µM and 11.5 µM; in the test with HOP-62 NSCLC, 12.2 µM and 57.3 µM; in the test with MALME-3M melanoma it was 5 µM and 19.4 µM; in the test on SNB-75 CNS, 7.84 µM and 1.43 µM; in the test with OVCAR-8 ovarian it was 8.67 µM and 33.2 µM. For the same molecule, the TGI is > 100 µM and 98 µM with OVCAR-5 ovarian; > 100 µM and 40.3 µM in the test on CCRF-CEM leukemia; over 100 µM in the test on HOP-62 NSCLC; over 100 µM in the test on CAKI-1 renal; over 100 µM in the test on MALME-3M melanoma; > 100 µM and 36.6 µM in the test on SNB-75 CNS. Also, the TGI in the test on HT29 colon was > 100 µM and 57.5 µM; in the test with MCF7 breast it was over 100 µM; in the test on BT-549 breast it was over 100 µM; in the test on OVCAR-8 ovarian, over 100 µM.
Take `COc1ccc2c(c1)c1nn(CCN3CCCCC3)c3ccc4c(=O)n(CCN(C)C)c(=O)n2c4c13`: the TGI in the test on OVCAR-5 ovarian is 0.126 µM; in the test on CCRF-CEM leukemia it was 0.785 µM; in the test on HOP-62 NSCLC, 0.0384 µM; with CAKI-1 renal, 0.375 µM; with MALME-3M melanoma, 0.351 µM; in the test on SNB-75 CNS it was 0.0711 µM. Also, the TGI with HT29 colon is 0.0963 µM; in the test on MCF7 breast, under 0.0504 µM; in the test on BT-549 breast it was 1.08 µM; with OVCAR-8 ovarian, 0.3 µM.
For `Cc1ccc(S(=O)(=O)n2ccc(-c3ccc4ccn(S(=O)(=O)c5ccc(C)cc5)c4c3)c2)cc1`, the TGI with OVCAR-5 ovarian, with CCRF-CEM leukemia, in the test on HOP-62 NSCLC, in the test on CAKI-1 renal, with MALME-3M melanoma and in the test with SNB-75 CNS was over 100 µM in each case. Moreover, the TGI in the test on HT29 colon, in the test on MCF7 breast, in the test with BT-549 breast and with OVCAR-8 ovarian was over 100 µM in each case.
In the case of `O=[N+]([O-])c1ccc(O)c(/C=N/c2nc(-c3ccccc3)cs2)c1`, the TGI is over 100 µM in the test on OVCAR-5 ovarian; over 100 µM with CCRF-CEM leukemia; over 90.5 µM with HOP-62 NSCLC; over 100 µM in the test on CAKI-1 renal; 74.6 µM with MALME-3M melanoma; 75.5 µM in the test with SNB-75 CNS. Further, the TGI was over 100 µM in the test on HT29 colon, over 100 µM in the test with MCF7 breast, 46.4 µM in the test with BT-549 breast and 68.4 µM with OVCAR-8 ovarian.
Turning to `COc1ccc(C2SCC(=O)N2NC(=O)C(C)Oc2ccccc2C)cc1` (stereo not given), the TGI with OVCAR-5 ovarian, in the test with CCRF-CEM leukemia, with HOP-62 NSCLC, in the test with CAKI-1 renal, in the test on MALME-3M melanoma and with SNB-75 CNS was over 100 µM each time. Besides, the TGI with HT29 colon, with MCF7 breast, with BT-549 breast and in the test with OVCAR-8 ovarian was over 100 µM throughout.
For `CCCN(CCC)C1CCc2c(ccc3cc[nH]c23)C1` (stereo not given), the TGI is over 100 µM in the test on OVCAR-5 ovarian; 73.3 µM with CCRF-CEM leukemia; over 100 µM with HOP-62 NSCLC; over 100 µM in the test on CAKI-1 renal; over 100 µM with MALME-3M melanoma; over 100 µM with SNB-75 CNS. In addition, the TGI in the test with HT29 colon, with MCF7 breast, with BT-549 breast and in the test on OVCAR-8 ovarian was over 100 µM throughout.
Take `COC(=O)c1cccc(OC)c1C#Cc1c(OC)cccc1OC`: the TGI in the test on OVCAR-5 ovarian, in the test with CCRF-CEM leukemia, in the test with HOP-62 NSCLC, with CAKI-1 renal, in the test with MALME-3M melanoma and in the test on SNB-75 CNS was over 100 µM in each case. Besides, the TGI in the test with HT29 colon, in the test on MCF7 breast, with BT-549 breast and with OVCAR-8 ovarian was over 100 µM throughout.
Consider `N=c1oc2ccccc2cc1-c1nc2ccccc2c(=O)[nH]1`, for which the TGI in the test with OVCAR-5 ovarian is over 100 µM; in the test with CCRF-CEM leukemia it was over 100 µM; with HOP-62 NSCLC it was 69.9 µM; in the test with CAKI-1 renal, over 100 µM; with MALME-3M melanoma, over 100 µM; with SNB-75 CNS, 25.3 µM. Moreover, the TGI in the test on HT29 colon, in the test with MCF7 breast, in the test on BT-549 breast and in the test on OVCAR-8 ovarian was over 100 µM each time.
For the molecule `COC1(c2cccs2)c2ccccc2C(OC)(c2cccs2)c2ccccc21` (stereo not given), the TGI with OVCAR-5 ovarian, in the test with CCRF-CEM leukemia, in the test with HOP-62 NSCLC, in the test with CAKI-1 renal, in the test with MALME-3M melanoma and in the test with SNB-75 CNS was over 100 µM in each case. In addition, the TGI with HT29 colon, with MCF7 breast, in the test on BT-549 breast and with OVCAR-8 ovarian was over 100 µM in each case.
